Laboratory results published in patent publication US12091409B2, “Ether linked triazoles as NRF2 activators” (ASTEX THERAPEUTICS LIMITED, priority 2016, dated 2024).

The compounds below were run on NQO1 specific enzyme activity in BEAS-2B cells (marker for NRF2 activation) (assay: BEAS-2B NQO1 MTT Assay). Details: Homo sapiens, BEAS-2B, 48 h, NQO1 specific activity induction, 48 hours with compound.
Assay type: cell-based
Description: NAD(P)H:quinone oxidoreductase 1 (NQO1), also called DT diaphorase, is a homodimeric FAD-containing enzyme that catalyzes obligatory NAD(P)H-dependent two-electron reductions of quinones and protects cells against the toxic and neoplastic effects of free radicals and reactive oxygen species arising from one-electron reductions. The transcription of NQO1 is finely regulated by NRF2, and thus NQO1 activity is a good marker for NRF2 activation. On day one, frozen BEAS-2B cells (ATCC) were thawed in a water bath, counted, and re-suspended at a concentration of 250,000 cells/mL. Fifty microliters of cells were plated in 384 well black clear-bottomed plates. Plates were incubated at 37° C., 5% CO2 overnight. On day two, plates were centrifuged and 50 nL of compound or controls were added to the cells. Plates were then incubated at 37° C., 5% CO2 for 48 hours. On day four, medium was aspirated from the plate and crude cell lysates were made by adding 13 uL of 1× Cell Signaling Technologies lysis buffer with 1 Complete, Mini, EDTA-free Protease Inhibitor Tablet (Roche) for each 10 mL of lysis buffer. After lysis plates were incubated for 20 minutes at room temperature. Two microliters of lysate were removed for use in Cell Titer Glo assay (Promega) and MTT cocktail was prepared (Prochaska et. al. 1998) for measurement of NQO1 activity. Fifty microliters of MTT cocktail was added to each well, plate was centrifuged, and analyzed on an Envision plate reader (Perkin Elmer) using Absorbance 570 nm label for 30 minutes. Product formation was measured kinetically and the pEC50 of NQO1 specific activity induction was calculated by plotting the change in absorbance (Delta OD/min) versus the log of compound concentration followed by 3-parameter fitting.
pEC50 is the negative log of the EC50.
EC50s<1 nM (+++++), EC50s 1 nM-10 nM (++++), EC50s 10 nM-100 nM (+++), EC50s 100 nM-1 uM (++), EC50s 1 uM-10 uM (+); EC50s>10 uM (−), or were not determined (ND).
Work on `CC(=O)N1CCC(Cn2cc(COC(c3ccc(C)c(CN4C[C@@H](C)Oc5ccccc5S4(=O)=O)c3)C(C)(C)C(=O)O)nn2)CC1` (stereo partly drawn) [Example 32, 3-((1-((1-Acetylpiperidin-4-yl)methyl)-1H-1,2,3-triazol-4-yl)methoxy)-2,2-dimethyl-3-(4-methyl-3-(((R)-4-methyl-1,1-dioxido-3,4-dihydro-2H-benzo[b][1,4,5]oxathiazepin-2-yl)methyl)phenyl)propanoic acid] yielded an EC50 of 10 to 100 nM.
`CCC(=O)N1CCC(Cn2cc(COC(c3ccc(C)c(CN4C[C@@H](C)Oc5ccccc5S4(=O)=O)c3)C(C)(C)C(=O)O)nn2)CC1` (stereo partly drawn) [Example 33, 2,2-Dimethyl-3-(4-methyl-3-(((R)-4-methyl-1,1-dioxido-3,4-dihydro-2H-benzo[b][1,4,5]oxathiazepin-2-yl)methyl)phenyl)-3-((1-((1-propionylpiperidin-4-yl)methyl)-1H-1,2,3-triazol-4-yl)methoxy)propanoic acid] showed an EC50 of 10 to 100 nM.
`CCCC(=O)N1CCC(Cn2cc(COC(c3ccc(C)c(CN4C[C@@H](C)Oc5ccccc5S4(=O)=O)c3)C(C)(C)C(=O)O)nn2)CC1` (stereo partly drawn) [Example 34, 3-((1-((1-Butyrylpiperidin-4-yl)methyl)-1H-1,2,3-triazol-4-yl)methoxy)-2,2-dimethyl-3-(4-methyl-3-(((R)-4-methyl-1,1-dioxido-3,4-dihydro-2H-benzo[b][1,4,5]oxathiazepin-2-yl)methyl)phenyl)propanoic acid] showed an EC50 of 10 to 100 nM.
`Cc1ccc(C(OCc2cn(CC3CCN(C(=O)C4CCOCC4)CC3)nn2)C(C)(C)C(=O)O)cc1CN1C[C@@H](C)Oc2ccccc2S1(=O)=O` (stereo partly drawn) [Example 35, 2,2-Dimethyl-3-(4-methyl-3-(((R)-4-methyl-1,1-dioxido-3,4-dihydro-2H-benzo[b][1,4,5]oxathiazepin-2-yl)methyl)phenyl)-3-((1-((1-(tetrahydro-2H-pyran-4-carbonyl)piperidin-4-yl)methyl)-1H-1,2,3-triazol-4-yl)methoxy)propanoic acid] was tested, and the EC50 was 100 to 1000 nM.
`Cc1ccc(C(OCc2cn(CC3CCN(S(C)(=O)=O)CC3)nn2)C(C)(C)C(=O)O)cc1CN1C[C@@H](C)Oc2ccccc2S1(=O)=O` (stereo partly drawn) [Example 36, 2,2-Dimethyl-3-(4-methyl-3-(((R)-4-methyl-1,1-dioxido-3,4-dihydro-2H-benzo[b][1,4,5]oxathiazepin-2-yl)methyl)phenyl)-3-((1-((1-(methylsulfonyl)piperidin-4-yl)methyl)-1H-1,2,3-triazol-4-yl)methoxy)propanoic acid] showed an EC50 of 10 to 100 nM.
Work on `Cc1ccc(C(OCc2cn(Cc3cccc(Cn4cc(C(C)C)nn4)c3)nn2)C(C)(C)C(=O)O)cc1CN1C[C@@H](C)Oc2ccccc2S1(=O)=O` (stereo partly drawn) [Example 37, 3-((1-(3-((4-Isopropyl-1H-1,2,3-triazol-1-yl)methyl)benzyl)-1H-1,2,3-triazol-4-yl)methoxy)-2,2-dimethyl-3-(4-methyl-3-(((R)-4-methyl-1,1-dioxido-3,4-dihydro-2H-benzo[b][1,4,5]oxathiazepin-2-yl)methyl)phenyl)propanoic acid] yielded an EC50 of 1 to 10 nM.
In the case of `CCc1cn(Cc2cccc(Cn3cc(COC(c4ccc(C)c(CN5C[C@@H](C)Oc6ccccc6S5(=O)=O)c4)C(C)(C)C(=O)O)nn3)c2)nn1` (some centres unmarked) [Example 38], the EC50 is reported as 10 to 100 nM.
`Cc1ccc(C(OCc2cn(Cc3cccc(Cn4cc(CO)nn4)c3)nn2)C(C)(C)C(=O)O)cc1CN1C[C@@H](C)Oc2ccccc2S1(=O)=O` (stereo partly drawn) [Example 39, 3-((1-(3-((4-(Hydroxymethyl)-1H-1,2,3-triazol-1-yl)methyl)benzyl)-1H-1,2,3-triazol-4-yl)methoxy)-2,2-dimethyl-3-(4-methyl-3-(((R)-4-methyl-1,1-dioxido-3,4-dihydro-2H-benzo[b][1,4,5]oxathiazepin-2-yl)methyl)phenyl)propanoic acid] gave an EC50 of 10 to 100 nM.
In the case of `Cc1ccc(C(OCc2cn(Cc3cccc(Cn4cc(CCO)nn4)c3)nn2)C(C)(C)C(=O)O)cc1CN1C[C@@H](C)Oc2ccccc2S1(=O)=O` (stereo partly drawn) [Example 40, 3-((1-(3-((4-(2-Hydroxyethyl)-1H-1,2,3-triazol-1-yl)methyl)benzyl)-1H-1,2,3-triazol-4-yl)methoxy)-2,2-dimethyl-3-(4-methyl-3-(((R)-4-methyl-1,1-dioxido-3,4-dihydro-2H-benzo[b][1,4,5]oxathiazepin-2-yl)methyl)phenyl)propanoic acid], the EC50 is reported as 100 to 1000 nM.
With `Cc1ccc(C(OCc2cn(Cc3cccc(Cn4cc(C(C)(C)O)nn4)c3)nn2)C(C)(C)C(=O)O)cc1CN1C[C@@H](C)Oc2ccccc2S1(=O)=O` (stereo partly drawn) [Example 41, 3-((1-(3-((4-(2-Hydroxypropan-2-yl)-1H-1,2,3-triazol-1-yl)methyl)benzyl)-1H-1,2,3-triazol-4-yl)methoxy)-2,2-dimethyl-3-(4-methyl-3-(((R)-4-methyl-1,1-dioxido-3,4-dihydro-2H-benzo[b][1,4,5]oxathiazepin-2-yl)methyl)phenyl)propanoic acid] the EC50 was 10 to 100 nM.
`Cc1ccc(C(OCc2cn(Cc3cccc(Cn4cc(CCCCO)nn4)c3)nn2)C(C)(C)C(=O)O)cc1CN1C[C@@H](C)Oc2ccccc2S1(=O)=O` (stereo partly drawn) [Example 42, 3-((1-(3-((4-(4-Hydroxybutyl)-1H-1,2,3-triazol-1-yl)methyl)benzyl)-1H-1,2,3-triazol-4-yl)methoxy)-2,2-dimethyl-3-(4-methyl-3-(((R)-4-methyl-1,1-dioxido-3,4-dihydro-2H-benzo[b][1,4,5]oxathiazepin-2-yl)methyl)phenyl)propanoic acid] showed an EC50 of 10 to 100 nM.
For `Cc1ccc(C(OCc2cn(Cc3cccc(Cn4cc(C(=O)O)nn4)c3)nn2)C(C)(C)C(=O)O)cc1CN1C[C@@H](C)Oc2ccccc2S1(=O)=O` (stereo partly drawn) [Example 43, 1-(3-((4-((2-Carboxy-2-methyl-1-(4-methyl-3-(((R)-4-methyl-1,1-dioxido-3,4-dihydro-2H-[b][1,4,5]oxathiazepin-2-yl)methyl)phenyl)propoxy)methyl)-1H-1,2,3-triazol-1-yl)methyl)benzyl)-1H-1,2,3-triazole-4-carboxylic acid], the EC50 was 100 to 1000 nM.
For `Cc1ccc(C(OCc2cn(Cc3cccc(Cn4cc(CC(=O)O)nn4)c3)nn2)C(C)(C)C(=O)O)cc1CN1C[C@@H](C)Oc2ccccc2S1(=O)=O` (stereo partly drawn) [Example 44, 3-((1-(3-((4-(Carboxymethyl)-1H-1,2,3-triazol-1-yl)methyl)benzyl)-1H-1,2,3-triazol-4-yl)methoxy)-2,2-dimethyl-3-(4-methyl-3-(((R)-4-methyl-1,1-dioxido-3,4-dihydro-2H-benzo[b][1,4,5]oxathiazepin-2-yl)methyl)phenyl)propanoic acid], the EC50 was 100 to 1000 nM.
`Cc1ccc(C(OCc2cn(Cc3cccc(Cn4cc(CCC(=O)O)nn4)c3)nn2)C(C)(C)C(=O)O)cc1CN1C[C@@H](C)Oc2ccccc2S1(=O)=O` (stereo partly drawn) [Example 45, 3-((1-(3-((4-(2-Carboxyethyl)-1H-1,2,3-triazol-1-yl)methyl)benzyl)-1H-1,2,3-triazol-4-yl)methoxy)-2,2-dimethyl-3-(4-methyl-3-(((R)-4-methyl-1,1-dioxido-3,4-dihydro-2H-benzo[b][1,4,5]oxathiazepin-2-yl)methyl)phenyl)propanoic acid] was tested, and the EC50 was 100 to 1000 nM.
